Assay results: ChEMBL document CHEMBL1140600, “Recent advances in proton pump inhibitors and management of acid-peptic disorders” (Bioorg Med Chem, 2007)

Legend:
[1] = Inhibition of H+/K+ ATPase
[2] = Dissociation constant, pKa of the compound; assay type: physicochemical

IC50 [1] [µM]	SMILES	pKa [2]
7.5	CCOC(=O)c1cnc(C[S+]([O-])c2nc3ccccc3[nH]2)nc1N(C)C (stereo unspecified)	–
–	COc1ccc2nc([S@@+]([O-])Cc3ncc(C)c(OC)c3C)[nH]c2c1 [ESOMEPRAZOLE]	4
–	Cc1c(OCC(F)(F)F)ccnc1C[S+]([O-])c1nc2ccccc2[nH]1 (stereo unspecified) [LANSOPRAZOLE]	4
5.8	COc1ccc2[nH]c([S+]([O-])Cc3ncc(C)c(OC)c3C)nc2c1 (stereo unspecified) [OMEPRAZOLE]	–
–	COc1ccnc(C[S+]([O-])c2nc3ccc(OC(F)F)cc3[nH]2)c1OC (stereo unspecified) [PANTOPRAZOLE]	4
–	COCCCOc1ccnc(C[S+]([O-])c2nc3ccccc3[nH]2)c1C (stereo unspecified) [RABEPRAZOLE]	5
